The record followed here is US20260130894A1, “COMPOSITION COMPRISING ISOQUINOLINE DERIVATIVE AS ACTIVE INGREDIENT FOR PREVENTION OR TREATMENT OF PARKINSON'S DISEASE” (ALTMEDICAL CO., LTD., priority 2022, published 2026).

Data set [1] has as its system dopaminergic neurons in the substantia nigra. Put plainly: Number of dopaminergic neurons in substantia nigra of MPTP mouse model (TH immunochemical staining). The format is in vivo. To be noted: MPTP mice administered CD1-012, TH staining (FIGS. 13A and 13B). On the procedure:
Subsequently, it was confirmed whether CD1-012 administration can inhibit dopaminergic neuron death in the substantia nigra of the animal model of Parkinson's disease. To this end, the number of dopaminergic neurons was measured by performing TH immunochemical staining on the substantia nigra of the mice undergoing the behavioral experiment in Example 4.

For data set [2], the system named is SH-SY5Y cell line. Put plainly: Mitophagy activity in SH-SY5Y cells expressing mt-Keima (FACS). In kind it is cell-based, human. The settings on record: FACS (FIG. 2A). On the procedure: (§1) It was confirmed whether CD1-012 synthesized in Example 1 increases mitophagy activity in various cell lines. To this end, CD1-012 and Comparative Example 1 (CCCP) were treated in the SH-SY5Y cell line, a human neuroblastoma cell line expressing mt-Keima fluorescent protein, and in the HeLa-Parkin cell line, a HeLa cervical cancer cell line expressing Parkin (E3 ligase). Following this treatment, the mitophagy activity of each sample was analyzed using flow cytometry (FACS), and the results are shown in FIGS. 2A to 2B.

Data set [3] concerns HeLa-Parkin cell line. Put plainly: Mitophagy activity in HeLa-Parkin cells (FACS). The format is cell-based, human. To be noted: FACS (FIG. 2B). How it is done: as §1
The test system of data set [4] is BEAS-2B cell line, in which PINK1 was knocked down. Put plainly: Mitophagy activity in PINK1 knockdown (shPINK1) BEAS-2B cells (FACS). In kind it is cell-based, human. The source says: In this example, it was confirmed whether the mitophagy activation function of the isoquinoline derivative according to the present invention is dependent on the PINK1-Parkin pathway. […]
In the following example, it was confirmed whether the novel isoquinoline derivative according to the present invention has a therapeutic effect of preventing or improving Parkinson's disease. Most of all, it was confirmed whether the treatment with the isoquinoline derivative improves mitochondrial dysfunction of a Parkinson's disease cell model. To this end, first, the induction of mitophagy by CD1-012 was verified. […] In addition, to analyze whether the mitophagy-promoting activity of CD1-012 is dependent on PINK1, PINK1 expression was inhibited (using shPNIK1) in BEAS-2B cells, which is a human normal lung cell line expressing a mitochondrial fluorescent protein, and mitophagy activity was analyzed by flow cytometry (FACS).

In data set [5] the test system is wild type (WT) and PINK1-deficient (PINK1−/−) mouse embryonic fibroblasts (MEFs). Kind of data set: Mitochondrial protein Cox2 level by western blotting in WT and PINK1-deficient MEFs. The format is cell-based. To be noted: 40 μM, 24 hours (FIG. 8A). Background: A western blot detects proteins with antibodies after separation by electrophoresis.
In data set [6] the test system is mitochondrial membrane potential. Put plainly: Mitochondrial membrane potential, TMRM assay. To be noted: CD1-012 10 μM or 15 μM, CCCP 10 μM, 24 hours (FIG. 6). In kind it is cell-based. On the procedure: It was confirmed whether the isoquinoline derivative according to the present invention induces mitochondrial dysfunction, similar to CCCP. To this end, the CD1-012 (10 μM or 15 μM) and CCCP (10 μM) were treated for 24 hours, and the mitochondrial membrane potential and mitochondrial reactive oxygen species (ROS) levels in each sample were analyzed. Mitochondrial membrane potential was analyzed using the TMRM (tetramethylrhodamine methyl ester) assay, and mitochondrial ROS levels were analyzed using the MitoSOX assay.

The subject of data set [7] is PINK1-deficient MEFs. Kind of data set: Mitochondrial function in PINK1-deficient MEFs (TMRM, MitoSOX-Red, ATP production). The format is cell-based, mouse. To be noted: 40 μM for 24 hours. On the procedure:
Subsequently, PINK1-deficient MEFs were treated with CD1-012 at a concentration of 40 μM for 24 hours, and 4 days later, mitochondrial function as analyzed. The mitochondrial membrane potential was analyzed by the tetramethyl rhodamine methyl ester (TMRM) assay, and mitochondrial ROS was analyzed using the MitoSOX-Red assay. […] Conversely, the level of mitochondrial ROS, which was elevated compared to the wild-type cells, was reduced by CD1-012 treatment (FIG. 8D).

The structures appear in SMILES notation.

Consider `Oc1cc2c(cc1O)-c1cc3ccc(O)c(O)c3c[n+]1CC2` [CD1-012, 2,3,9,10-tetrahydroxy-5,6-dihydroisoquinolino[3,2-a]isoquinolin-7-ium bromide], for which, in data set [1], the “number of dopaminergic neurons in substantia nigra” value is “restored to a level similar to the control”. Further, the “mitophagy activity compared to the control group (Con)” value in data set [2] and in data set [3] was “significantly increased mitophagy activity” each time. Also, the “mitophagy-promoting activity compared with CCCP (10 μM)” value in data set [4] (20 μM, BEAS-2B, FACS (FIG. 8B)) is “mitophagy-promoting activity at a level similar to that of CCCP”. In data set [4] (20 μM, shPINK1 BEAS-2B, FACS (FIG. 8B)), the “mitophagy-promoting activity when PINK1 gene expression was inhibited” value was “mitophagy-promoting activity was not inhibited”. Also, in data set [4] (CCCP 10 μM, CD1-012 15 μM, 18 hours (FIG. 7)), the “mitophagy activation in PINK1 knockdown cell line (shPINK1) compared to control cell line (shNT)” value is reported as “did not show a significant difference”. For the same molecule, the Cox2 protein level result in data set [5] is listed as “significantly decreased”. Further, the mitochondrial membrane potential entry in data set [6] is reported as “no decrease in mitochondrial membrane potential was observed”. For the same molecule, the “mitochondrial ATP production (reduced in PINK1-deficient cells)” value in data set [7] (analyzed 4 days later (FIG. 8E)) was “restored”. In data set [7] (analyzed 4 days later, MitoSOX-Red (FIG. 8D)), the “level of mitochondrial ROS (elevated in PINK1-deficient cells)” value is given as “reduced”. Moreover, in data set [7] (analyzed 4 days later, TMRM (FIG. 8C)), the “mitochondrial membrane potential (decreased in PINK1-deficient cells)” value was “restored”.
